Drawing on patent US20260217711A1, “TRIAZOLOPYRIDINYL ETHER LINKED COMPOUNDS AS KINASE INHIBITORS” (Bristol-Myers Squibb Company, priority 2023, published 2026), this text covers IC50 for 27 compounds.

Molecules are shown by their SMILES.

In the first experiment the test system is MLKL phosphorylation (pMLKL) in HT29-L23 cells. As to the kind of experiment: MLKL Phosphorylation High-Content Assay. The experiment is classed as cell-based. To be noted: Homo sapiens, 6 h, necroptosis induced with human TNFα, SMAC mimetic and Z-VAD, read-out: LE pMLKL HC IC50. How it is done:
Following 6 h incubation at 37° C. […] MLKL phosphorylation was detected using anti-MLKL (phospho […]) antibody (Abcam #ab187091) (1:1000 dilution in Blocking Buffer [PBS supplemented with 0.1% BSA]) with ON incubation at 4° C. […] Following another three cycles of washes in PBS, the microplates were sealed, and cellular images were acquired in the Cellomics ArrayScan VTI high-content imager equipped with an X1 camera. […] The image sets were analyzed using the Compartmental Analysis Bioapplication software (Cellomics). The level of MLKL phosphorylation was quantified as […].
Turning to `CC(O)(c1cccnc1)C(F)(F)CCOc1c(F)ccc(-c2ccn3nc(N)nc3c2)c1F` (single isomer, unassigned) [Example 36, 5-(3-(2-amino-[1,2,4]triazolo[1,5-a]pyridin-7-yl)-2,6-difluorophenoxy)-3,3-difluoro-2-(pyridin-3-yl)pentan-2-ol], the IC50 turned out to be 5 nM.

Take `CC(O)(c1ccccc1)C(F)(F)CCOc1cccc(-c2ccn3nc(N)nc3c2)c1F` (single isomer, unassigned) [Example 68, 5-(3-(2-amino-[1,2,4]triazolo[1,5-a]pyridin-7-yl)-2-fluorophenoxy)-3,3-difluoro-2-phenylpentan-2-ol]: the half-inhibitory concentration (IC50) is 0.1 nM.

With `Nc1nc2cc(-c3cccc(OCCC(F)(F)C(O)c4ccc(F)cc4)c3F)ccn2n1` (single isomer, unassigned) [Example 71, 4-(3-(2-amino-[1,2,4]triazolo[1,5-a]pyridin-7-yl)-2-fluorophenoxy)-2,2-difluoro-1-(4-fluorophenyl)butan-1-ol], the IC50 was 0.6 nM.

The experiment is the same for the next values; noted with them: necroptosis induced with human TNFα, SMAC mimetic and Z-VAD, 6 h, read-out: LE pMLKL HC IC50.
As to `CC(O)(c1ccccc1)C(F)(F)CCOc1c(F)ccc(-c2ccn3nc(N)nc3c2F)c1F` (single isomer, unassigned) [Example 37, 5-(3-(2-amino-8-fluoro-[1,2,4]triazolo[1,5-a]pyridin-7-yl)-2,6-difluorophenoxy)-3,3-difluoro-2-phenylpentan-2-ol], the IC50 was determined as 110 nM.

As for `CC(O)(c1ccccc1)C(F)(F)CCOc1c(F)ccc(-c2ccn3nc(N)nc3c2)c1F` (single isomer, unassigned) [Example 39, 5-(3-(2-amino-[1,2,4]triazolo[1,5-a]pyridin-7-yl)-2,6-difluorophenoxy)-3,3-difluoro-2-phenylpentan-2-ol], the IC50 turned out to be 130 nM.

On to `CC(O)(c1ccccc1)C(F)(F)CCOc1c(Cl)ccc(-c2ccn3nc(N)nc3c2)c1F` (single isomer, unassigned) [Example 41, 5-(3-(2-amino-[1,2,4]triazolo[1,5-a]pyridin-7-yl)-6-chloro-2-fluorophenoxy)-3,3-difluoro-2-phenylpentan-2-ol], for which the IC50 came to 0.4 nM.

`CC(O)(c1ccccc1)C(F)(F)CCOc1c(Cl)ccc(-c2ccn3nc(N)nc3c2)c1F` (single isomer, unassigned) [Example 42, 5-(3-(2-amino-[1,2,4]triazolo[1,5-a]pyridin-7-yl)-6-chloro-2-fluorophenoxy)-3,3-difluoro-2-phenylpentan-2-ol]: the IC50 is 17 nM.

For the compound `CC(O)(c1ccc(Cl)cc1)C(F)(F)CCOc1c(Cl)ccc(-c2ccn3nc(N)nc3c2)c1F` (single isomer, unassigned) [Example 43, 5-(3-(2-amino-[1,2,4]triazolo[1,5-a]pyridin-7-yl)-6-chloro-2-fluorophenoxy)-2-(4-chlorophenyl)-3,3-difluoropentan-2-ol], the IC50 was 330 nM.

As for `CC(O)(c1ccc(Cl)cc1)C(F)(F)CCOc1c(Cl)ccc(-c2ccn3nc(N)nc3c2)c1F` (single isomer, unassigned) [Example 44, 5-(3-(2-amino-[1,2,4]triazolo[1,5-a]pyridin-7-yl)-6-chloro-2-fluorophenoxy)-2-(4-chlorophenyl)-3,3-difluoropentan-2-ol], the IC50 was determined as 0.6 nM.

For `CC(O)(c1ccc(Cl)cc1)C(F)(F)CCOc1c(F)ccc(-c2ccn3nc(N)nc3c2)c1F` (single isomer, unassigned) [Example 45, 5-(3-(2-amino-[1,2,4]triazolo[1,5-a]pyridin-7-yl)-2,6-difluorophenoxy)-2-(4-chlorophenyl)-3,3-difluoropentan-2-ol], the IC50 stood at 80 nM.

Turning to `CC(O)(c1ccc(Cl)cc1)C(F)(F)CCOc1c(F)ccc(-c2ccn3nc(N)nc3c2)c1F` (single isomer, unassigned) [Example 46, 5-(3-(2-amino-[1,2,4]triazolo[1,5-a]pyridin-7-yl)-2,6-difluorophenoxy)-2-(4-chlorophenyl)-3,3-difluoropentan-2-ol], the IC50 worked out at 0.4 nM.

With `CC(O)(c1ccc(Cl)cc1)C(F)(F)CCOc1cccc(-c2ccn3nc(N)nc3c2)c1F` (single isomer, unassigned) [Example 47, 5-(3-(2-amino-[1,2,4]triazolo[1,5-a]pyridin-7-yl)-2-fluorophenoxy)-2-(4-chlorophenyl)-3,3-difluoropentan-2-ol], the half-maximal inhibitory concentration (IC50) was 23 nM.

Take `CC(O)(c1ccc(Cl)cc1)C(F)(F)CCOc1cccc(-c2ccn3nc(N)nc3c2)c1F` (single isomer, unassigned) [Example 48, 5-(3-(2-amino-[1,2,4]triazolo[1,5-a]pyridin-7-yl)-2-fluorophenoxy)-2-(4-chlorophenyl)-3,3-difluoropentan-2-ol]: the IC50 turned out to be 0.1 nM.

As to `CC(O)(c1ccc(F)cc1)C(F)(F)CCOc1c(Cl)ccc(-c2ccn3nc(N)nc3c2)c1F` (single isomer, unassigned) [Example 51, 5-(3-(2-amino-[1,2,4]triazolo[1,5-a]pyridin-7-yl)-6-chloro-2-fluorophenoxy)-3,3-difluoro-2-(4-fluorophenyl)pentan-2-ol], the IC50 turned out to be 150 nM.

As for `Nc1nc2cc(-c3ccc(F)c(OCCC(F)(F)C(O)c4ccc(F)cc4)c3)ccn2n1` (single isomer, unassigned) [Example 53, 4-(5-(2-amino-[1,2,4]triazolo[1,5-a]pyridin-7-yl)-2-fluorophenoxy)-2,2-difluoro-1-(4-fluorophenyl)butan-1-ol], the IC50 stood at 1.5 nM.

On to `Nc1nc2cc(-c3ccc(F)c(OCCC(F)(F)C(O)c4ccc(F)cc4)c3)ccn2n1` (single isomer, unassigned) [Example 54, 4-(5-(2-amino-[1,2,4]triazolo[1,5-a]pyridin-7-yl)-2-fluorophenoxy)-2,2-difluoro-1-(4-fluorophenyl)butan-1-ol], for which the half-maximal inhibitory concentration (IC50) was 32 nM.

For `Nc1nc2cc(-c3ccc(F)c(OCCC(F)(F)C(O)c4ccc(F)cc4)c3F)ccn2n1` (single isomer, unassigned) [Example 55, 4-(3-(2-amino-[1,2,4]triazolo[1,5-a]pyridin-7-yl)-2,6-difluorophenoxy)-2,2-difluoro-1-(4-fluorophenyl)butan-1-ol], the IC50 turned out to be 0.3 nM.

Consider `Nc1nc2cc(-c3ccc(F)c(OCCC(F)(F)C(O)c4ccc(F)cc4)c3F)ccn2n1` (single isomer, unassigned) [Example 56, 4-(3-(2-amino-[1,2,4]triazolo[1,5-a]pyridin-7-yl)-2,6-difluorophenoxy)-2,2-difluoro-1-(4-fluorophenyl)butan-1-ol], for which the IC50 came to 4 nM.

Turning to `CC(O)(c1ccc(F)cc1)C(F)(F)CCOc1cc(-c2ccn3nc(N)nc3c2)ccc1F` (single isomer, unassigned) [Example 57, 5-(5-(2-amino-[1,2,4]triazolo[1,5-a]pyridin-7-yl)-2-fluorophenoxy)-3,3-difluoro-2-(4-fluorophenyl)pentan-2-ol], the IC50 was determined as 130 nM.

With `CC(O)(c1ccc(F)cc1)C(F)(F)CCOc1cc(-c2ccn3nc(N)nc3c2)ccc1F` (single isomer, unassigned) [Example 58, 5-(5-(2-amino-[1,2,4]triazolo[1,5-a]pyridin-7-yl)-2-fluorophenoxy)-3,3-difluoro-2-(4-fluorophenyl)pentan-2-ol], the IC50 turned out to be 5 nM.

Turning to `Nc1nc2cc(-c3ccc(Cl)c(OCCC(F)(F)C(O)c4ccc(F)cc4)c3F)ccn2n1` (single isomer, unassigned) [Example 59, 4-(3-(2-amino-[1,2,4]triazolo[1,5-a]pyridin-7-yl)-6-chloro-2-fluorophenoxy)-2,2-difluoro-1-(4-fluorophenyl)butan-1-ol], the IC50 stood at 2 nM.

With `Nc1nc2cc(-c3ccc(Cl)c(OCCC(F)(F)C(O)c4ccc(F)cc4)c3F)ccn2n1` (single isomer, unassigned) [Example 60, 4-(3-(2-amino-[1,2,4]triazolo[1,5-a]pyridin-7-yl)-6-chloro-2-fluorophenoxy)-2,2-difluoro-1-(4-fluorophenyl)butan-1-ol], the IC50 turned out to be 5 nM.

Regarding `Nc1nc2cc(-c3cccc(OCCC(F)(F)C(N)c4ccc(F)cc4)c3F)ccn2n1` (single isomer, unassigned) [Example 61, 7-(3-(4-amino-3,3-difluoro-4-(4-fluorophenyl)butoxy)-2-fluorophenyl)-[1,2,4]triazolo[1,5-a]pyridin-2-amine], the IC50 was found to be 0.6 nM.

With `Nc1nc2cc(-c3cccc(OCCC(F)(F)C(N)c4ccc(F)cc4)c3F)ccn2n1` (single isomer, unassigned) [Example 62, 7-(3-(4-amino-3,3-difluoro-4-(4-fluorophenyl)butoxy)-2-fluorophenyl)-[1,2,4]triazolo[1,5-a]pyridin-2-amine], the IC50 was found to be 6 nM.

With `Cc1ccc(-c2ccn3nc(N)nc3c2)c(F)c1OCCC(F)(F)C(C)(O)c1ccc(F)cc1` (single isomer, unassigned) [Example 63, 5-(3-(2-amino-[1,2,4]triazolo[1,5-a]pyridin-7-yl)-2-fluoro-6-methylphenoxy)-3,3-difluoro-2-(4-fluorophenyl)pentan-2-ol], the IC50 amounted to 8 nM.

For the compound `Cc1ccc(-c2ccn3nc(N)nc3c2)c(F)c1OCCC(F)(F)C(C)(O)c1ccc(F)cc1` (single isomer, unassigned) [Example 64, 5-(3-(2-amino-[1,2,4]triazolo[1,5-a]pyridin-7-yl)-2-fluoro-6-methylphenoxy)-3,3-difluoro-2-(4-fluorophenyl)pentan-2-ol], the half-maximal inhibitory concentration (IC50) is 0.1 nM.

On to `CC(O)(c1ccccc1)C(F)(F)CCOc1cccc(-c2ccn3nc(N)nc3c2)c1F` (single isomer, unassigned) [Example 67, 5-(3-(2-amino-[1,2,4]triazolo[1,5-a]pyridin-7-yl)-2-fluorophenoxy)-3,3-difluoro-2-phenylpentan-2-ol], for which the IC50 came to 4 nM.

By IC50 is commonly meant the point on the concentration scale where inhibition reaches its midpoint.
